Read-outs that look alike come from different tables or passages of the source.
What was measured:
[1] = system: ferret tracheal smooth muscle; assay: Isometric tension of isolated tracheal smooth muscle rings (contraction by peptides, effect of inhibitors); format: cell-based
Protocol: (§1) Twenty-seven ferrets were anesthetized with pentobarbital sodium (45-60 mg/kg, i.p.), and the trachea were removed. Transverse rings (8 mm long) were cut from the trachea and mounted in glass chambers filled with 14 ml of Krebs-Henseleit solution of the following composition (in mMoles/L): NaCl 118, KCl 5.9, CaCl₂ 2.5, MgSO₄ 1.2, NaH₂PO4 1.2, NaHCO₃ 25.5, glucose 5.6, 0.1% bovine serum albumin, and penicillin-streptomycin (100 Units/ml). The soluiton was maintained at 37°C and was aerated continuously in a mixture of 95% O₂-5% CO₂, which produced a pH of 7.4. Six tracheal rings were studied concurrently.
(§2) The tracheal rings were connected to strain gauges (Grass FT03) for continuous recording of isometric tension, and the rings were placed between two rectangular platinum electrodes (6 x 40 mm) for electrical field stimulation. The rings were initially stretched to a tension of 20 g for 30 seconds and were then allowed to equilibrate for 1 hour while resting tension was adjusted to 4 g (Skoogh, B-E. et al., J. Appl. Physiol. 53: 253-257 [1982]). During equilibration, the medium was changed every 15 minutes. […] Id.
The responsiveness to substance P (using concentrations ranging from 10⁻⁸ M to 10⁻⁵ M) and to leu-thiorphan and cumulative dose-response curves to substance P (Peninsula Labs) were obtained. Each succeeding concentration of substance P was added after contraction reached a plateau. After completion of the first dose-response curve to substance P, leu-thiorphan (10⁻⁵ M, Squibb Pharmaceutical) was added to the organ bath. Following a 15 minute incubation, a second dose-response curve to substance P was obtained.
The N-terminal fragment, substance P₁₋₉ was studied because enkephalinase cleaves substance P between the 9 and 10 positions (Matsas, R. et al., Proc. Natl. Acad. Sci. [USA] 80: 3111-3115 [1983]), generating that fragment. (10⁻⁵ M Peninsula Labs). Experiments were also carried out with (DPro², DTrp^7,9)-substance P (10⁻⁵ M) (Peninsula Labs), a substance P antagonist (Hakanson, R. et al., Br. J. Pharmac. 77: 697-700 [1982]) by adding the antagonist after the response to substance P (10⁻⁶ M) and leu-thiorphan (10⁻⁵ M) reached a plateau.
Data were expressed as mean ± SE. For the dose-response curves to substance P, the means between two groups at each concentration were compared by a paired t test. For the studies of electrical field stimulation, responses were compared by one way analysis of variance and Newman-Keuls multiple range test. Significance was accepted at P < 0.05. […]

ferret trachea [2] = assay: Mucus secretion from ferret tracheal segments in Ussing-type chambers (release of 35SO4-labeled macromolecules, flux of bound SO4); format: cell-based; settings: for potentiation of substance P-induced secretion: 10 µg/ml each, bestatin 10⁻⁵M (Fig. 4)
Protocol: (§3) Mucus secretion from tracheal segments of 36 ferrets was measured using methods described earlier (Borson, D.B. et al., J. Appl. Physiol. 57: 457-466 [1984]). Briefly, after anesthetizing adult male ferrets weighing 1-2 kg with sodium pentobarbital (45-60 mg/kg, ip), the trachea was removed and washed in medium 199/Earles HCO₃ bubbled with 95% O₂ - 5% CO₂ at 38°C. Tracheal segments were mounted in plastic Ussing-type chambers connected to perfusion chambers made of siliconized glass (MRA Inc., Clearwater, Florida). After exposing both sides to medium 199, 0.167 mCi Na₂.³⁵SO₄ was added to the submucosal side. At 15 minute intervals, the medium was drained from the luminal side and replaced with fresh unlabeled medium. Each sample was placed in dialysis tubing (Spectropore no. D1615-1; MW cutoff: 12-14,000) and exhaustively dialyzed with the rest of the samples from the experiment against at least 6 changes of distilled water (4 liters each) containing excess unlabeled SO₄ and sodium azide (10 mg/L) to prevent bacterial degradation of the macromolecules. After dialysis, the bound radioactivity of each sample was determined using a Beckman Instruments beta counter (model LS 7500). Molecular weight profiles of the materials secreted were determined by first desalting samples using a Sephadex G-50 column, then concentrating carbohydrate-containing molecules on DEAE Sephacel, and determining apparent molecular size under denaturing conditions (4 M guanidine, 10mM 2-mercaptoethanol, 0.1% Triton X-100) using a Sepharose CL-6B column.
(§4) Characteristics of the response to substance P including the time course, concentration dependence, and reproducibility were studied. Tracheal segments from 8 ferrets were incubated in the presence of radiolabel for 3 hours to which were added different concentrations of substance P (10⁻⁹M to 10⁻⁵M; Peninisula Labs, Belmont, CA). […] All treatments were randomized with regard to the site of sampling in the trachea to eliminate systematic bias.
(§5) The effects of endogenous proteinases were studied by incubating at least two tissues from each of 4 ferrets for 30 minutes in medium for 2.5 hours and adding a combination of nine (9) proteinase inhibitors to the submucosal side of each tissue (10 µg/mL each). The inhibitors used included leupeptin, antipain, pepstatin A, thiorphan, substance P₁₋₉ (Growcott, J.W. and Tarpey, A.V. Eur. J. Pharm. 84: 107-109 [1982]) and the angiotensin converting enzyme inhibitor, teprotide (Peninsula labs), aprotonin, BSA, and bacitracin (Sigma). Thirty minutes after addition of inhibitor, substance P (10⁻⁶M) was added to the submucosal side. […] The mean responses to substance P in the presence of inhibitors was compared with the mean responses of two control segments from each of the same animals.
(§6) The concentration-dependence of enkephalinase inhibition was explored by adding thiorphan in different concentrations to different tissues. To determine whether the secretory effect of substance P might be mediated indirectly via the release of endogenous enkephalins, we tested the effects of met-enkephalin (Peninsula Labs) on secretory responses.
(§7) We calculated the flux of bound SO₄ (^JSO₄) from the cpm in the dialyzed samples according to the equation modified from (Corrales, R.J. et al., J. Appl. Physiol. 56: 1076-1082 [1985]): ()^J SO4 (pmol SO4 (/cm)^2 /h) =(((cpm recovered/15 min x 4) x (811 x 10)^6 pmol cold SO4 /5mL))/((0.5 cm)^2 x cpm in 5.0 mL of hot-side medium) [formula]

[3] = system: ferret tracheal smooth muscle; assay: Electrical field stimulation-induced contraction of isolated tracheal smooth muscle; format: cell-based; settings: inhibitor 10⁻⁵ M, 15 min; tachykinins 10⁻⁷ M
Protocol: as §2
Increasing concentrations of leu-thiorphan (10⁻¹¹ to 10⁻⁴ M) were added and the stimuli repeated to determine whether leu-thiorphan modulated electrical field stimulation-induced contractions. […] After determining control responses to electrical field stimulation (5 Hz), leu-thiorphan (10⁻⁵ M; 15 min) was added, the stimulus repeated, (DPro²,DTrp^7,9)substance P, the substance P antagonist (10⁻⁵ M; 15 min; Peninisula Labs) was added, and the stimulus was repeated.
(§8) Data were expressed as mean ± SE. For the dose-response curves to tachykinins the means between two groups at each concentration were analyzed by an unpaired t test. For the study of electrical field stimulation, responses were compared by one way analysis of variance and Newman-Keuls multiple range test. Significance was accepted at p<0.05.

neutrophils = assay: Neutrophil chemotaxis assay (Chemotaxis kit, 5 µm filter); format: cell-based; settings: Homo sapiens, Formyl Met-Leu-Phe 1µM + inhibitor 10µM, 1 hr at 37°C, read-out: Neutrophil Migration (% control)
Protocol: As assay was used to test the effects of enkephalinase on neutrophil chemotaxis. A commercially available chemotactic assay (Chemotaxis kit, Neuroprobe, Cabin John, Md) was used and modified as described below. Neutrophils were isolated by sedimentation over dextran from peripheral blood of human donors. A sample of neutrophils is placed over a 5 µm filter in a chemotaxis chamber containing aliquots of test material. Three to six replicates were run for each test for 1 hr. at 37°C. The number of migrating neutrophils in each chamber is then counted. The chemotactic potential is evaluated by the number of cells in five selected unit areas.
Various specific inhibitors of enkephalinase were used to determine the role of enkephalinase in chemotaxis of neutrophils. Chemotactic activity is reported as the total number of neutrophils observed in five fields of the kit membrane under 100X magnification. Thus, the larger the number the more chemotactic was a particular test composition.

ferret trachea [4] = settings: for potentiation of substance P-induced secretion: substance P 10⁻⁶M; for order of potency for stimulation of secretion: each tachykinin 10⁻⁵M
Protocol: as §3, §4, §5, §6, §7

[5] = system: ferret tracheal smooth muscle; assay: Isometric tension of isolated tracheal smooth muscle rings (contraction by peptides, effect of inhibitors); format: cell-based; remark: listed apart in the source
Protocol: as §1
The tracheal rings were connected to strain gauges (Grass FT03) for continuous recording of isometric tension, and the rings were placed between two rectangular platinum electrodes (6 x 40 mm) for electrical field stimulation. The rings were initially stretched to a tension of 20 g for 30 seconds and were then allowed to equilibrate for 1 hour while resting tension was adjusted to 4 g (Skoogh, B-E. et al., J. Appl. Physiol. 53: 253-257 [1982]). During equilibration, the medium was changed every 15 minutes. […] Id. […]
The methods used to excise tracheal tissue, mount and electrically stimulate the tissue were identical to those described above. The responses to tachykinins and to leu-thiorphan, cumulative dose-response curves to substance P (Peninsula Labs), neurokinin A (Peninisula Labs) and neurokinin B (Peninsula Labs) were obtained using concentrations ranging from 10⁻¹¹ M to 10⁻⁵ M in the presence and absence of leu-thiorphan (10⁻⁵ M, 15 min; Squibb Pharmaceutical). Each succeeding concentration of tachykinin was added after the previous contraction had reached a plateau.
as §8
The methods used were the same as those described in Example 7.

[6] = inhibitor 10⁻⁴M, substance P 10⁻⁶M
[7] = presence of phosphoramidon 10⁻⁵M

Q: With `CN1[C@@H]2CC[C@H]1C[C@@H](OC(=O)C(CO)c1ccccc1)C2` (some centres unmarked) [atropine] as the compound, how does the “effect on SP plus leu-thiorphan-induced contractions” value [1] read?
A: decreased SP plus leu-thiorphan-induced contractions significantly

Q: How did the “potentiation of substance P-induced secretion” value (ferret trachea [2]; substance P 10⁻⁶M) turn out when `CC(C)C[C@H](NC(=O)[C@@H](O)[C@H](N)Cc1ccccc1)C(=O)O` [bestatin] was run?
A: failed to potentiate substance P-induced secretion

Q: What about the “potentiation of the response to electrical field stimulation in the presence of substance P, neurokinin A or neurokinin B” value [3] of the same compound?
A: did not

Q: For `C[C@H](CS)C(=O)N1CCC[C@H]1C(=O)O` [captopril], which activation at 100 µM (ferret trachea [2]; Mustela putorius, inhibitor 10⁻⁴M (Fig. 4), substance P 10⁻⁶M, not significantly different from control, read-out: potentiation of substance P-induced secretion) is on record?
A: 44 ± 27%

Q: What about the “potentiation of the response to electrical field stimulation in the presence of substance P, neurokinin A or neurokinin B” value [3] of the same compound?
A: did not

Q: Which “potentiation of substance P-induced secretion” value (ferret trachea [2]; substance P 10⁻⁶M) does the source give for `CC(=O)N[C@@H](CC(C)C)C(=O)N[C@@H](CC(C)C)C(=O)N[C@H](C=O)CCCNC(=N)N` [leupeptin] here?
A: failed to potentiate substance P-induced secretion

Q: What about the “potentiation of the response to electrical field stimulation in the presence of substance P, neurokinin A or neurokinin B” value [3] of the same compound?
A: did not

Q: What does the source list for `CC(C)C[C@H](NP(=O)(O)O[C@@H]1O[C@@H](C)[C@H](O)[C@@H](O)[C@H]1O)C(=O)N[C@@H](Cc1c[nH]c2ccccc12)C(=O)O` [phosphoramidon]?
A: effect on secretory responses to each tachykinin (ferret trachea [2]; 10⁻⁵M, 30 min pretreatment, tachykinins 10⁻⁵M): significantly increased; substance P-induced increase in flux in inhibitor-treated tissues (ferret trachea [2]; inhibitor 10⁻⁵M, substance P 10⁻⁶M): 357 ± 91.9 pmol bound SO₄/cm²/h; activity at 10 µM (neutrophils): 65%

Q: Which “flux of bound SO₄ above the pre-stimulus baseline” value (ferret trachea [4]; 10 µM) does the source give for `CSCC[C@H](NC(=O)[C@H](CC(C)C)NC(=O)CNC(=O)[C@H](Cc1ccccc1)NC(=O)[C@H](Cc1ccccc1)NC(=O)[C@H](CCC(N)=O)NC(=O)[C@H](CCC(N)=O)NC(=O)[C@@H]1CCCN1C(=O)[C@H](CCCCN)NC(=O)[C@@H]1CCCN1C(=O)[C@@H](N)CCCNC(=N)N)C(N)=O` [substance P] here?
A: 155 ± 42%

Q: `O=C(O)CNC(=O)C(CS)Cc1ccccc1` (centres unmarked) [thiorphan] was tested. Which “increase in flux of bound SO₄ by the inhibitor by itself” value (ferret trachea [2]; 10⁻⁴M, submucosal side) did it give?
A: 57 ± 17.8 pmol bound SO₄/cm²/h

Q: What about the minimal effective concentration (ferret trachea [2]; Mustela putorius, substance P 10⁻⁶M, read-out: threshold of potentiation of the secretory response to substance P) of the same compound?
A: ~0.01 µM

Q: And the “response to substance P, % of control” value (ferret trachea [2]; [6])?
A: 502 ± 147%

Q: What about the “substance P-induced increase in flux of bound SO₄ in inhibitor-pretreated tissue” value (ferret trachea [2]; [6]) of the same compound?
A: 268.0 ± 58.0 pmol/cm²/h

Q: What about the “sum of the individual effects as % of the response to substance P in the presence of the inhibitor” value (ferret trachea [2]; test of additivity) of the same compound?
A: 51%

Q: And the “sum of the individual effects of substance P and inhibitor” value (ferret trachea [2]; test of additivity)?
A: 136.2 pmol bound SO₄/cm²/h

Q: And the activity at 10 µM (neutrophils)?
A: 29 ± 19%

Q: Which “potentiation of substance P-induced secretion” value (ferret trachea [4]; 10 µg/ml each, bestatin 10⁻⁵M (Fig. 4)) does the source give for bacitracin here?
A: failed to potentiate substance P-induced secretion

Q: What does the source list for “bradykinin (RPPGFSPFR; Bradykinin; UniProt P01042 381-389, looked up)”?
A: contraction ([5]; 10⁻¹¹ to 10⁻⁵ M): caused contraction in a dose-dependent fashion; relative contractile potency ([5]; absence of enkephalinase inhibitors): more potent that lys-bradykinin; relative contractile potency ([5]; presence of Leu-thiorphan): equally potent

Q: How did the “order of potency for stimulation of secretion” value (“order of potency” below) (ferret trachea [4]; absence of phosphoramidon) turn out when eledoisin was run?
A: substance P> physalaemin=eledoisin=kassinin > neurokinin A

Q: What about the “order of potency” value (ferret trachea [4]; [7]) of the same compound?
A: Substance P=neurokinin A=physalaemin=eledoisin=kassinin>neurokinin B

Q: How did the “order of potency” value (ferret trachea [4]; absence of phosphoramidon) turn out when kassinin was run?
A: substance P> physalaemin=eledoisin=kassinin > neurokinin A

Q: And the “order of potency” value (ferret trachea [4]; [7])?
A: Substance P=neurokinin A=physalaemin=eledoisin=kassinin>neurokinin B

Q: physalaemin was tested. Which “order of potency” value (ferret trachea [4]; absence of phosphoramidon) did it give?
A: substance P> physalaemin=eledoisin=kassinin > neurokinin A

Q: What about the “order of potency” value (ferret trachea [4]; [7]) of the same compound?
A: Substance P=neurokinin A=physalaemin=eledoisin=kassinin>neurokinin B

Q: Which “potentiation of substance P-induced secretion” value (ferret trachea [4]; inhibitor 10⁻⁴M (Fig. 4), not significantly different from control) does the source give for teprotide here?
A: 49 ± 39%
